One assay has as its system P388/ADR leukemia. Description: NCI tumour cell line growth inhibition, 48 h.
The next assay relates to P388 leukemia. Description: NCI tumour cell line growth inhibition, 48 h.

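These data come from cells grown in 96-well plates and exposed to compound for 48 hours at five concentrations. TGI: concentration producing complete growth inhibition.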

With `CN(CO)c1nc(N(C)CO)nc(N(C)CO)n1`, the TGI is 69.1 µM in the assay on P388/ADR leukemia and 23.8 µM in the assay with P388 leukemia.

Values taken from PubChem BioAssay (NCI).
